In one assay the test system is Aβ1-40. In words: Measurement of Aβ1-40 in culture medium of 7W WT APP751 CHO cells by ELISA.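 For all read-outs here: 5 µM test compound but RI-coded compounds at 10 µM for 24 hours.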 Format: cell-based, Chinese hamster. Conditions: for Aβ1-40 (% of control): CHO cells that overexpress APP751, zero = below the detection limit of the assay; for activity at 5 µM: Cricetulus griseus, 5 μM test compound, CHO cells stably transfected with human APP751, culture medium, ELISA, control DMSO.

A further assay deals with Aβ1-42. Nature of the assay: Measurement of Aβ1-42 in culture medium of 7W WT APP751 CHO cells by ELISA.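 For Aβ1-42 (% of control): 5 µM test compound but RI-coded compounds at 10 µM for 24 hours.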 The format is cell-based, Chinese hamster. The conditions noted are these: for Aβ1-42 (% of control): CHO cells that overexpress APP751, zero = below the detection limit of the assay; for activity at 5 µM: Cricetulus griseus, 5 μM test compound, CHO cells stably transfected with human APP751, culture medium, ELISA, control DMSO. A general note: In an ELISA, binding on a coated surface is turned into a signal by an enzyme label.

The mark [1] stands for this setting: Table 1, 0 = no detectable amount.
The mark [2] stands for this setting: Table 1, 0 = no detectable amount, read-out: Aβ1-42 (% of control).
[3] abbreviates: Table 3, read-out: Aβ-42 (% of control).

Like-named read-outs stand apart in the source and are kept apart here.

Turning to `CCOC(=O)C1=CN(c2cc(C)ccc2C)C=C(C(=O)OCC)C1c1ccc(OCC)c(OC)c1` [ST052471, ethyl 1-(2,5-dimethylphenyl)-5-(ethoxycarbonyl)-4-(4-ethoxy-3-methoxyphenyl)-1,4-dihydropyridine-3-carboxylate], the “Aβ1-40 (% of control)” value in the assay on Aβ1-40 is 34.26 % of control. In addition, the “Aβ1-42 (% of control)” value in the assay with Aβ1-42 is given as 57.75 % of control.

Turning to `CCOC(=O)C1=CN(c2cc(C)ccc2C)C=C(C(=O)OCC)C1c1cc(OC)c(OC)cc1OC` [ST052474, ethyl 1-(2,5-dimethylphenyl)-5-(ethoxycarbonyl)-4-(2,4,5-trimethoxyphenyl)-1,4-dihydropyridine-3-carboxylate], the “Aβ1-40 (% of control)” value in the assay with Aβ1-40 was 5.404 % of control. The “Aβ1-42 (% of control)” value in the assay with Aβ1-42 is on record as 3.498 % of control.

Regarding `CCOC(=O)C1=CN(c2cc(C)ccc2C)C=C(C(=O)OCC)C1c1ccc(OC)c(OC)c1OC` [ST052487, ethyl 1-(2,5-dimethylphenyl)-5-(ethoxycarbonyl)-4-(2,3,4-trimethoxyphenyl)-1,4-dihydropyridine-3-carboxylate], in the assay on Aβ1-40, the “Aβ1-40 (% of control)” value is 11.56 % of control. Further, the “Aβ1-42 (% of control)” value in the assay with Aβ1-42 is given as 15.1 % of control.

As for `CCOC(=O)C1=CN(c2cc(C)ccc2C)C=C(C(=O)OCC)C1c1ccccc1OCC` [ST052488, ethyl 1-(2,5-dimethylphenyl)-5-(ethoxycarbonyl)-4-(2-ethoxyphenyl)-1,4-dihydropyridine-3-carboxylate], the “Aβ1-40 (% of control)” value in the assay on Aβ1-40 was 60.3 % of control. Besides, the “Aβ1-42 (% of control)” value in the assay on Aβ1-42 is on record as 57.75 % of control.

In the case of `CCOC(=O)C1=CN(c2cc(C)ccc2C)C=C(C(=O)OCC)C1c1cc(OC)c(OC)c(OC)c1` [ST052491, ethyl 1-(2,5-dimethylphenyl)-5-(ethoxycarbonyl)-4-(3,4,5-trimethoxyphenyl)-1,4-dihydropyridine-3-carboxylate], the “Aβ1-40 (% of control)” value with Aβ1-40 is recorded as 70.29 % of control. In the assay with Aβ1-42, the “Aβ1-42 (% of control)” value is listed as 28.35 % of control.

As for `COC(=O)C1=C(C)NC2=C(C(=O)CC(c3cccs3)C2)C1c1ccc(C(F)(F)F)cc1` (stereo not drawn) [ST052493, methyl 2-methyl-5-oxo-7-(2-thienyl)-4-[4-(trifluoromethyl)phenyl]-1,4,6,7,8-pentahydroquinoline-3-carboxylate], the activity at 5 µM in the assay with Aβ1-40 (setting [1]) is 39.9%; in the assay with Aβ1-42 (setting [2]) it was 57.1%.

As for `CCCCOC(=O)C1=C(C)NC2=C(C(=O)CC(C)(C)C2)C1c1cccc(I)c1` (stereo not drawn) [ST056056, butyl 4-(3-iodophenyl)-2,7,7-trimethyl-5-oxo-1,4,6,7,8-pentahydroquinoline-3-carboxylate], the results for the activity at 5 µM in the assay on Aβ1-40 (setting [1]) and with Aβ1-42 (setting [2]) were 6.56% and 12.3%, respectively.

As for `N[C@@H](Cn1ccc(=O)c(O)c1)C(=O)O` [ST056312, (2S)-2-amino-3-(3-hydroxy-4-oxohydropyridyl)propanoic acid], the activity at 5 µM came to 70.7% with Aβ1-40 (Table 3) and 37.1% with Aβ1-42 (setting [3]).

On to `CCOC(=O)C1=C(C)NC(C)=C(C(=O)OC)C1c1ccc(Br)cc1` (stereo not drawn) [ST063245, ethyl 4-(4-bromophenyl)-5-(methoxycarbonyl)-2,6-dimethyl-1,4-dihydropyridine-3-carboxylate], for which the “Aβ1-40 (% of control)” value in the assay with Aβ1-40 is recorded as 8.423 % of control. Besides, the “Aβ1-42 (% of control)” value in the assay on Aβ1-42 is given as 0 % of control.

Take `N#CC(C#N)=CC=C1C=CN(Cc2ccccc2)C=C1` [ST208051, {2-[1-benzyl-4-hydropyridylidene]ethylidene}methane-11-dicarbonitrile]: the activity at 5 µM in the assay with Aβ1-40 (Table 3) came out at 57.1%; in the assay on Aβ1-42 (setting [3]), 75%.

Turning to `COC(=O)C1=C(C)NC(C)=C(C(=O)OC)C1c1ccc(Br)cc1` [ST208633, methyl 4-(4-bromophenyl)-5-(methoxycarbonyl)-2,6-dimethyl-1,4-dihydropyridine-3-carboxylate], the “Aβ1-40 (% of control)” value in the assay on Aβ1-40 is 9.12 % of control. For the same compound, the “Aβ1-42 (% of control)” value with Aβ1-42 was 0 % of control.

For the compound `COC(=O)C1=C(C)NC(C)=C(C(=O)OC)C1c1cccc(Br)c1` [ST208634, methyl 4-(3-bromophenyl)-5-(methoxycarbonyl)-2,6-dimethyl-1,4-dihydropyridine-3-carboxylate], in the assay on Aβ1-40, the “Aβ1-40 (% of control)” value was 80.5 % of control. In addition, in the assay with Aβ1-42, the “Aβ1-42 (% of control)” value is on record as 32.51 % of control.

Take `CCOC(=O)C1=C(C)NC2=C(C(=O)CCC2)C1c1ccc(Br)cc1` (stereo not drawn) [ST211289, ethyl 4-(4-bromophenyl)-2-methyl-5-oxo-1,4,6,7,8-pentahydroquinoline-3-carboxylate]: the activity at 5 µM stood at 89.1% with Aβ1-40 (setting [1]) and 63.6% in the assay on Aβ1-42 (setting [2]).

For the compound `CCOC(=O)C1=C(C)NC(C)=C(C(=O)OCC)C1c1c(Cl)cccc1Cl` [ST211423, ethyl 4-(2,6-dichlorophenyl)-5-(ethoxycarbonyl)-2,6-dimethyl-1,4-dihydropyridine-3-carboxylate], in the assay with Aβ1-40, the “Aβ1-40 (% of control)” value is 2.731 % of control. Also, the “Aβ1-42 (% of control)” value in the assay on Aβ1-42 is on record as 0 % of control.

Turning to `CCOC(=O)C1=C(C)NC(C)=C(C(=O)OC)C1c1cc(Cl)cc(Cl)c1OC` (stereo not drawn) [ST211424, methyl 4-(3,5-dichloro-2-methoxyphenyl)-5-(ethoxycarbonyl)-2,6-dimethyl-1,4-dihydropyridine-3-carboxylate], in the assay with Aβ1-40, the “Aβ1-40 (% of control)” value was 62.46 % of control. The “Aβ1-42 (% of control)” value in the assay with Aβ1-42 is given as 91.29 % of control.

With `CCOC(=O)C1=C(C)NC(C)=C(C(=O)OCC)C1c1ccc(F)cc1` [ST211500, ethyl 5-(ethoxycarbonyl)-4-(4-fluorophenyl)-2,6-dimethyl-1,4-dihydropyridine-3-carboxylate], the “Aβ1-40 (% of control)” value in the assay with Aβ1-40 is 20.67 % of control. Besides, in the assay with Aβ1-42, the “Aβ1-42 (% of control)” value was 19.53 % of control.

For the compound `N#CC1=C(N)n2c(s/c(=C/c3ccncc3)c2=O)=C(C#N)C1c1ccncc1` (stereo not drawn) [ST211853, 5-amino-3-oxo-7-(4-pyridyl)-2-(4-pyridylmethylene)-4,7-dihydro-1,3-thiazolidino[3,2-a]pyridine-6,8-dicarbonitrile], in the assay with Aβ1-40, the “Aβ1-40 (% of control)” value is 49 % of control. Besides, the “Aβ1-42 (% of control)” value with Aβ1-42 was 18.37 % of control.

In the case of `CCOC(=O)C1=C(C)NC2=C(C(=O)CCC2)C1c1cc2c(cc1[N+](=O)[O-])OCO2` (stereo not drawn) [ST212479, ethyl 2-methyl-4-(6-nitro(2H-benzo[d]1,3-dioxolan-5-yl))-5-oxo-1,4,6,7,8-pentahydroquinoline-3-carboxylate], the activity at 5 µM in the assay on Aβ1-40 (setting [1]) is 60.2%; in the assay with Aβ1-42 (setting [2]), 29.3%.

With `CCOC(=O)C1=C(C)NC2=C(C(=O)CCC2)C1c1ccc(OCC)cc1` (stereo not drawn) [ST213781, ethyl 4-(4-ethoxyphenyl)-2-methyl-5-oxo-1,4,6,7,8-pentahydroquinoline-3-carboxylate], the values for the activity at 5 µM in the assay with Aβ1-40 (setting [1]) and in the assay with Aβ1-42 (setting [2]) were 66.8% and 81.3%, respectively.

On to `CCCCOC(=O)C1=C(C)NC2=C(C(=O)CC(C)(C)C2)C1c1ccc(Cl)c(Cl)c1` (stereo not drawn) [ST215419, butyl 4-(3,4-dichlorophenyl)-2,7,7-trimethyl-5-oxo-1,4,6,7,8-pentahydroquinoline-3-carboxylate], for which the activity at 5 µM with Aβ1-40 (setting [1]) and with Aβ1-42 (setting [2]) was 0% each time.

Consider `COc1ccc(C2C(C(=O)OC(C)C)=C(C)NC3=C2C(=O)CC(C)(C)C3)cc1Br` (stereo not drawn) [ST215449, methylethyl 4-(3-bromo-4-methoxyphenyl)-2,7,7-trimethyl-5-oxo-1,4,6,7,8-pentahydroquinoline-3-carboxylate], for which the activity at 5 µM in the assay with Aβ1-40 (setting [1]) was 24.5%; in the assay on Aβ1-42 (setting [2]) it was 25.7%.

In the case of `CCCCOC(=O)C1=C(C)NC2=C(C(=O)CC(C)(C)C2)C1c1ccccc1[N+](=O)[O-]` (stereo not drawn) [ST215464, butyl 2,7,7-trimethyl-4-(2-nitrophenyl)-5-oxo-1,4,6,7,8-pentahydroquinoline-3-carboxylate], the activity at 5 µM turned out to be 62.7% in the assay on Aβ1-40 (setting [1]) and 90.7% with Aβ1-42 (setting [2]).

With `CCOC(=O)C1=C(N)n2c(s/c(=C/c3ccccc3Cl)c2=O)=C(C#N)C1c1ccccc1Cl` (stereo not drawn) [ST215651, ethyl 5-amino-7-(2-chlorophenyl)-2-[(2-chlorophenyl)methylene]-8-cyano-3-oxo-4,7-dihydro-1,3-thiazolidino[3,2-a]pyridine-6-carboxylate], the “Aβ1-40 (% of control)” value in the assay on Aβ1-40 is on record as 80.92 % of control. For the same compound, in the assay with Aβ1-42, the “Aβ1-42 (% of control)” value was 42.3 % of control.

In the case of `Cc1ccc(/C=c2/sc3n(c2=O)C(N)=C(C#N)C(c2ccc(C)cc2)C=3C#N)cc1` (stereo not drawn) [ST215709, 5-amino-7-(4-methylphenyl)-2-[(4-methylphenyl)methylene]-3-oxo-4,7-dihydro-1,3-thiazolidino[3,2-a]pyridine-6,8-dicarbonitrile], the “Aβ1-40 (% of control)” value with Aβ1-40 is 55.91 % of control. The “Aβ1-42 (% of control)” value in the assay with Aβ1-42 is on record as 78.43 % of control.

As for `COc1cccc(/C=c2/sc3n(c2=O)C(N)=C(C#N)C(c2cccc(OC)c2)C=3C#N)c1` (stereo not drawn) [ST215713, 5-amino-7-(3-methoxyphenyl)-2-[(3-methoxyphenyl)methylene]-3-oxo-4,7-dihydro-1,3-thiazolidino[3,2-a]pyridine-6,8-dicarbonitrile], the “Aβ1-40 (% of control)” value in the assay with Aβ1-40 is recorded as 69.2 % of control. The “Aβ1-42 (% of control)” value with Aβ1-42 is recorded as 80.48 % of control.

As for `CCCCOC(=O)C1=C(C)NC2=C(C(=O)CC(C)(C)C2)C1c1cc2c(cc1[N+](=O)[O-])OCO2` (stereo not drawn) [ST216053, butyl 2,7,7-trimethyl-4-(6-nitro(2H-benzo[d]1,3-dioxolen-5-yl))-5-oxo-1,4,6,7,8-pentahydroquinoline-3-carboxylate], the activity at 5 µM with Aβ1-40 (setting [1]) was 22.2%; in the assay on Aβ1-42 (setting [2]), 6.37%.

For the compound `CCCCCOC(=O)C1=C(C)NC2=C(C(=O)CC(C)(C)C2)C1c1ccc(Cl)c(Cl)c1` (stereo not drawn) [ST216061, pentyl 4-(3,4-dichlorophenyl)-2,7,7-trimethyl-5-oxo-1,4,6,7,8-pentahydroquinoline-3-carboxylate], the activity at 5 µM in the assay with Aβ1-40 (setting [1]) and with Aβ1-42 (setting [2]) was 0% throughout.

(Values after patent US20100119599A1 (ARCHER PHARMACEUTICALS, INC., priority 2006, published 2010).)
